Assays:
[1] = tested on: cytokines and chemokines of the interleukin, TNF, C-C and C-X-C motif families; settings: for adjusted significance (p) value, C-C Motif Chemokine Ligand 2 (Ccl2) / adjusted significance (p) value, C-C Motif Chemokine Ligand 3 (Ccl3) / adjusted significance (p) value, C-C Motif Chemokine Ligand 4 (Ccl4) / adjusted significance (p) value, C-C Motif Chemokine Ligand 7 (Ccl7) / adjusted significance (p) value, C-C Motif Chemokine Ligand 8 (Ccl8) / adjusted significance (p) value, C-C Motif Chemokine Ligand 12 (Ccl12) / adjusted significance (p) value, C-C Motif Chemokine Ligand 24 (Ccl24) / adjusted significance (p) value, C-X-C Motif Chemokine Ligand 3 (Cxcl3) / adjusted significance (p) value, C-X-C Motif Chemokine Ligand 5 (Cxcl5) / adjusted significance (p) value, C-X-C Motif Chemokine Ligand 10 (Cxcl10) / adjusted significance (p) value, Interleukin 6 (IL6) / adjusted significance (p) value, Interleukin 11 (IL11) / adjusted significance (p) value, Interleukin 12B (IL12b) / adjusted significance (p) value, Interleukin 18 Receptor 1 (IL18r1) / adjusted significance (p) value, TNF Receptor Superfamily Member 10b (Tnfrsf10b) / adjusted significance (p) value, TNF Receptor Superfamily Member 11b (Tnfrsf11b) / adjusted significance (p) value, TNF Superfamily Member 9 (Tnfsf9) / adjusted significance (p) value, TNF Superfamily Member 18 (Tnfsf18) / adjusted significance (p) value, Interleukin 36 Gamma (IL1f9) / adjusted significance (p) value, TNF Superfamily Member 15 (Tnfsf15): lung expression vs bleomycin alone group; for adjusted significance (p) value, C-C Motif Chemokine Ligand 2 (Ccl2) / adjusted significance (p) value, C-C Motif Chemokine Ligand 3 (Ccl3) / adjusted significance (p) value, C-C Motif Chemokine Ligand 4 (Ccl4) / adjusted significance (p) value, C-C Motif Chemokine Ligand 7 (Ccl7) / adjusted significance (p) value, C-C Motif Chemokine Ligand 8 (Ccl8) / adjusted significance (p) value, C-C Motif Chemokine Ligand 12 (Ccl12) / adjusted significance (p) value, C-C Motif Chemokine Ligand 24 (Ccl24) / adjusted significance (p) value, C-X-C Motif Chemokine Ligand 3 (Cxcl3) / adjusted significance (p) value, C-X-C Motif Chemokine Ligand 5 (Cxcl5) / adjusted significance (p) value, C-X-C Motif Chemokine Ligand 10 (Cxcl10) / adjusted significance (p) value, Interleukin 6 (IL6) / adjusted significance (p) value, Interleukin 11 (IL11) / adjusted significance (p) value, Interleukin 12B (IL12b) / adjusted significance (p) value, Interleukin 18 Receptor 1 (IL18r1) / adjusted significance (p) value, TNF Receptor Superfamily Member 10b (Tnfrsf10b) / adjusted significance (p) value, TNF Receptor Superfamily Member 11b (Tnfrsf11b) / adjusted significance (p) value, TNF Superfamily Member 9 (Tnfsf9) / adjusted significance (p) value, TNF Superfamily Member 18 (Tnfsf18): Direction: downregulated; for adjusted significance (p) value, Interleukin 36 Gamma (IL1f9) / adjusted significance (p) value, TNF Superfamily Member 15 (Tnfsf15): Direction: upregulated; for regulation of expression of members of the interleukin/interleukin receptor, TNF/TNF receptor, C-C and C-X-C motif chemokine families: lung, vs bleomycin alone disease group, significant = adjusted p value <0.10
Protocol: Global gene expression changes were determined by Illumina Next Generation RNA sequencing in lung samples from the animal study described in Example 1. RNA was extracted from the post caval lobe that had been snap frozen at the termination of the study. For this analysis, 8 samples from each of treatment groups 1-6 (total 48 samples) were analysed. Briefly, total RNA was extracted for next generation sequencing using standard methods, then Illumina TruSeq RNA libraries including poly(A) enrichment were prepared. Sequencing was performed on an Illumina NextSeq 500, v2, high output, 1×75 bp reads with 30 Mio packages. Demultiplexing and trimming of Illumina adaptor residuals was performed on the raw data. Mapping of data reads was made using the reference mouse genome mm10. For bioinformatics analysis, the average expression level and standard deviations were determined for each gene for the 8 replicates per treatment group. Pairwise comparisons between groups were then performed to identify differentially expressed genes. Absolute p-values and adjusted p-values, to correct for multiplicity of testing, were calculated for each pairwise analysis.

[2] = tested on: bleomycin-induced pulmonary fibrosis; experiment: 21-day model of bleomycin-induced pulmonary fibrosis in mice; format: in vivo; settings: day 21, oral gavage QD, 25 mg/kg pioglitazone, 100 mg/kg pamapimod, alone or in combination, p<0.05, t test; for lung weights normalized to body weights: vs. group 2 (bleomycin + vehicle); for fibrosis, group mean fibrotic index (modified Ashcroft score): vs. group 2 (fibrotic index 4.8)
Protocol: Male C57BL/6 mice, six to seven weeks of age, were used for this study. Animals were weighed one day prior to study initiation and 60 animals were randomized into 6 groups (N=10/group) such that mean body weights were similar for the different groups. Food and water were provided ad libitum, with a 12-hour light/dark cycle.
Treatment in groups 2-6 was initiated one day prior to bleomycin administration and continued though to the study end on day 21. On day -1, animals were dosed via oral gavage with vehicle control (0.5% methylcellulose; group 1 and group 2), pioglitazone at 25 mg/kg/dose (group 3), pamapimod at 100 mg/kg/dose (group 4), pioglitazone at 25 mg/kg/dose and pamapimod at 100 mg/kg/dose (group 5), pirfenidone at 100mg/kg/dose (group 6) and continued for 21 days. Pioglitazone and pamapimod were dosed once daily (QD) and pirfenidone was dosed twice daily (BID). On day 0, all mice in groups 2-6 received a single instillation of bleomycin to induce pulmonary fibrosis. Animals in group 1 (dosed with vehicle from days-1 to 21) were not instilled with bleomycin, but instead received a single dose of saline, and were considered sham negative control mice. Final drug treatments were administered 2-4 hours prior to study termination on day 21.
Body weights, absolute lung weights, and lung weights normalized to body weights were measured for all mice on day 21 after bleomycin instillation, and were compared to bleomycin-instilled vehicle treated control mice. The post-caval lobes from the right lung were collected and snap frozen. The remaining lungs were fixed in 10% NBF and underwent histopathology analysis and evaluated for eseverity of fibrosis using a modified Ashcroft score.
Vehicle (0.5% methylcellulose) and compounds were prepared weekly and stored at room temperature in the dark. All mice were dosed starting on day-1 until study termination on day 21 with a volume of 200 μl of vehicle or test compounds QD by oral gavage or 100 μl of pirfenidone BID by oral gavage. For groups receiving both pirfenidone and test compounds, pirfenidone was dosed 100 μl BID and test compounds were delivered in a total volume of 100 μl QD. […]
The lung samples were processed and embedded with all lobes from each mouse in one paraffin block. […] A modified Ashcroft score (Hubner et al., 2008) was recorded for each field. The fibrotic index was calculated as the sum of the modified Ashcroft field scores divided by the number of fields examined. […]
Endpoint data on day 21 is shown as the average Ashcroft score per experimental group, with standard error of the mean (SEM). Statistical differences (defined as p<0.05) between groups were analyzed using t-tests in Prism version 7.0 software (GraphPad, La Jolla, Calif.). […]

[3] = cited from earlier work; for reduction of the rate of decline in lung function: patients with IPF; for adverse events / side effects: treatment of IPF

Compound | adjusted significance (p) value, C-C Motif Chemokine Ligand 2 (Ccl2) [1] | adjusted significance (p) value, C-C Motif Chemokine Ligand 3 (Ccl3) [1] | adjusted significance (p) value, C-C Motif Chemokine Ligand 4 (Ccl4) [1] | adjusted significance (p) value, C-C Motif Chemokine Ligand 7 (Ccl7) [1] | adjusted significance (p) value, C-C Motif Chemokine Ligand 8 (Ccl8) [1] | adjusted significance (p) value, C-C Motif Chemokine Ligand 12 (Ccl12) [1] | adjusted significance (p) value, C-C Motif Chemokine Ligand 24 (Ccl24) [1] | adjusted significance (p) value, C-X-C Motif Chemokine Ligand 3 (Cxcl3) [1] | adjusted significance (p) value, C-X-C Motif Chemokine Ligand 5 (Cxcl5) [1] | adjusted significance (p) value, C-X-C Motif Chemokine Ligand 10 (Cxcl10) [1] | adjusted significance (p) value, Interleukin 6 (IL6) [1] | adjusted significance (p) value, Interleukin 11 (IL11) [1] | adjusted significance (p) value, Interleukin 12B (IL12b) [1] | adjusted significance (p) value, Interleukin 18 Receptor 1 (IL18r1) [1] | adjusted significance (p) value, TNF Receptor Superfamily Member 10b (Tnfrsf10b) [1] | adjusted significance (p) value, TNF Receptor Superfamily Member 11b (Tnfrsf11b) [1] | adjusted significance (p) value, TNF Superfamily Member 9 (Tnfsf9) [1] | adjusted significance (p) value, TNF Superfamily Member 18 (Tnfsf18) [1] | adjusted significance (p) value, Interleukin 36 Gamma (IL1f9) [1] | adjusted significance (p) value, TNF Superfamily Member 15 (Tnfsf15) [1] | also measured
Cn1c(=O)c(Oc2ccc(F)cc2F)cc2cnc(NC(CCO)CCO)nc21 [Pamapimod, 6-(2,4-Difluorophenoxy)-2-[3-hydroxy-1-(2-hydroxyethyl)-propylamino]-8-methyl-8H-pyrido[2,3-d]pyrimidin-7-one] | NS (NS = adjusted p value > 0.10) | NS (NS = adjusted p value > 0.10) | 0.042 | NS (NS = adjusted p value > 0.10) | NS (NS = adjusted p value > 0.10) | NS (NS = adjusted p value > 0.10) | 0.032 | NS (NS = adjusted p value > 0.10) | NS (NS = adjusted p value > 0.10) | NS (NS = adjusted p value > 0.10) | NS (NS = adjusted p value > 0.10) | NS (NS = adjusted p value > 0.10) | 0.023 | NS (NS = adjusted p value > 0.10) | NS (NS = adjusted p value > 0.10) | NS (NS = adjusted p value > 0.10) | NS (NS = adjusted p value > 0.10) | NS (NS = adjusted p value > 0.10) | NS (NS = adjusted p value > 0.10) | 0.0079 | regulation of expression of members of the interleukin/interleukin receptor, TNF/TNF receptor, C-C and C-X-C motif chemokine families [1]: Neither pioglitazone or pamapimod single treatments significantly regulated expression; lung weights normalized to body weights [2]: Substantially lower normalized lung weights; fibrosis, group mean fibrotic index (modified Ashcroft score) [2]: Substantially less fibrosis
CCc1ccc(CCOc2ccc(CC3SC(=O)NC3=O)cc2)nc1 (centres unmarked) [Pioglitazone] | NS (NS = adjusted p value > 0.10) | NS (NS = adjusted p value > 0.10) | NS (NS = adjusted p value > 0.10) | NS (NS = adjusted p value > 0.10) | NS (NS = adjusted p value > 0.10) | NS (NS = adjusted p value > 0.10) | NS (NS = adjusted p value > 0.10) | NS (NS = adjusted p value > 0.10) | NS (NS = adjusted p value > 0.10) | NS (NS = adjusted p value > 0.10) | NS (NS = adjusted p value > 0.10) | NS (NS = adjusted p value > 0.10) | NS (NS = adjusted p value > 0.10) | NS (NS = adjusted p value > 0.10) | NS (NS = adjusted p value > 0.10) | NS (NS = adjusted p value > 0.10) | NS (NS = adjusted p value > 0.10) | NS (NS = adjusted p value > 0.10) | NS (NS = adjusted p value > 0.10) | NS (NS = adjusted p value > 0.10) | regulation of expression of members of the interleukin/interleukin receptor, TNF/TNF receptor, C-C and C-X-C motif chemokine families [1]: Neither pioglitazone or pamapimod single treatments significantly regulated expression; lung weights normalized to body weights [2]: Substantially lower normalized lung weights; fibrosis, group mean fibrotic index (modified Ashcroft score) [2]: Substantially less fibrosis
COC(=O)c1ccc2c(c1)NC(=O)/C2=C(\Nc1ccc(N(C)C(=O)CN2CCN(C)CC2)cc1)c1ccccc1 [nintedanib, Nintedanib] | – | – | – | – | – | – | – | – | – | – | – | – | – | – | – | – | – | – | – | – | reduction of the rate of decline in lung function [3]: approximately 50%; adverse events / side effects [3]: significant systemic adverse events
Cc1ccc(=O)n(-c2ccccc2)c1 [pirfenidone, Pirfenidone] | – | – | – | – | – | – | – | – | – | – | – | – | – | – | – | – | – | – | – | – | reduction of the rate of decline in lung function [3]: approximately 50%; adverse events / side effects [3]: significant side effects

From patent publication US20210267983A1, “COMBINATIONS OF PPAR AGONISTS AND P38 KINASE INHIBITORS FOR PREVENTING OR TREATING FIBROTIC DISEASES” (KINARUS AG, priority 2018, published 2021)
